Test results published in US20130172308A1, “ANTIMICROBIAL AGENTS” (John Grant COLLINS, priority 2011, published 2013).

Experiments:
S. aureus ATCC 25923 = test: MIC determination, broth micro-dilution (CAMHB); format: cell-based, Staphylococcus aureus
Description: (§1) Four strains of bacteria were chosen for the susceptibility tests: S. aureus ATCC 25923; MRSA (a wild clinical strain from the JCU culture collection); E. coli ATCC 25922 and P. aeruginosa ATCC 27853. The bacteria were grown on Mueller Hinton agar (OXOID, cat. No. CM0337) and suspended in growth medium cation-adjusted Mueller Hinton broth (CAMHB, OXOID, cat. No. CM0405). The MIC of each complex was determined in duplicate by standard micro-dilution methodology (British Society for Antimicrobial Chemotherapy Working Party, J. Antimicrob. Chemother., 1991, 27(suppl. D), 22) using gentamicin as the positive control. The ruthenium complexes were dissolved in CAMHB to a stock solution of […] and two-fold diluted in the broth in 96-well plates in a final volume of […] in each well. The same volume […] of bacterial suspension was added in each well making a concentration range of 0.25 mg ml^−1 to 128 mg ml^−1 for each complex. The plates were incubated at 37° C. for 24 h. The results are summarised in Table 1 below, using the following abbreviations: • Rubpm=ΔΔ-[{Ru(phen)2}2(μ-2,2′-bipyrimidine)]Cl4 • Rudppm=ΔΔ-[{Ru(phen)2}2(μ-4,6-bis(2-pyridyl)pyrimidine)]Cl4 • Rubb7trinuclear=Δ*Δ*-[{Ru*(phen)2}(μ-bb7){Ru(phen)}(μ-bb7){Ru*(phen)2}]Cl6 (only the two terminal metal centres are chiral, the two central metal centres are racemic) • Rubb7tetranuclear=Δ*Δ*-[{Ru*(phen)2}(μ-bb7) {Ru(phen)}(μ-bb7){Ru(phen)}(μ-bb7)-{Ru*(phen)2}]Cl8 (only the two terminal metal centres are chiral, the two central metal centres are racemic)
(§2) Further MIC assays and Minimum Bactericidal Concentration (MBC) assays were conducted against Gram-positive and Gram-negative bacterial strains using symmetric and non-symmetric, inert and labile complexes.

[1] = tested on: MRSA (a wild clinical strain from the JCU culture collection); test: MIC determination, broth micro-dilution (CAMHB); format: cell-based, methicillin-resistant S. aureus
Description: as §1, §2

E. coli ATCC 25922 = test: MIC determination, broth micro-dilution (CAMHB); format: cell-based, Escherichia coli
Description: as §1, §2

P. aeruginosa ATCC 27853 = test: MIC determination, broth micro-dilution (CAMHB); format: cell-based, Pseudomonas aeruginosa
Description: as §1, §2

S. aureus = test: Minimum Bactericidal Concentration (MBC) assay (CAMHB); format: cell-based, Staphylococcus aureus; details: Table 4, all ΔΔ- enantiomers
Description: as §2

MRSA = test: as above; format: cell-based, methicillin-resistant S. aureus; details: Table 4, all ΔΔ- enantiomers
Description: as §2

E. coli = test: as above; format: cell-based, Escherichia coli; details: Table 4, all ΔΔ- enantiomers
Description: as §2

P. aeruginosa = test: as above; format: cell-based, Pseudomonas aeruginosa; details: Table 4, all ΔΔ- enantiomers
Description: as §2

[2] = format: physicochemical; details: pH 7.4
Description: The primary difference between the members of the Rubbn family of complexes is the number of methylene groups in the flexible linking chain. […] Lipophilicity is a significant factor affecting the biological activity of most therapeutic compounds, as it relates to the capacity of the drug to penetrate through the cell membrane. The standard octanol-water partition coefficient (logP) was determined for the Rubbn series (F. Lombardo, B. Faller, M. Shalaeva, I. Tetko and S. Tilton, Methods and Principles in Medicinal Chemistry, 2008, 37, 407) parent model mononuclear species ([Ru(phen)2(Me2bpy)]^2+) and the trinuclear and tetranuclear complexes.
The partition coefficients (logP) were measured using the shake flask technique: each ruthenium complex (at both 0.05 and 0.1 mM) was dissolved in the water phase (0.2 M Na2HPO4—NaH2PO4 buffer, pH=7.4) and an equivalent volume of n-octanol was added.
The two phases were mutually saturated by shaking overnight at ambient temperature and then were allowed to separate on standing. The concentration of the metal complex in each phase was determined spectrophotometrically at l=450 nm.

S. epidermidis = test: Further MIC assays, whole spectrum bacteria (CAMHB); format: cell-based; details: Table 3; Broth: CAMHB
Description: (§3) Further MIC assays were conducted against five different bacteria with Rubbn (n=7, 10, 12, 16), two rigid dinuclear species (bridges bpm and dppm) and Gentamicin—Whole spectrum bacteria MIC test results (Broth: CAMHB).

S. typhimurium = test: as above; format: cell-based; details: Table 3; Broth: CAMHB
Description: as §3

E. faecalis = test: as above; format: cell-based; parameters: unit not given beside the values; details: Table 3; Broth: CAMHB
Description: as §3

VRE = test: as above; format: cell-based, vancomycin-resistant Enterococcus; details: Table 3; Broth: CAMHB
Description: as §3

A. baumanii = test: as above; format: cell-based; parameters: unit not given here; details: Table 3; Broth: CAMHB
Description: as §3

[3] = Table 4, CAMHB, all ΔΔ- enantiomers

| Compound | MIC S. aureus (S. aureus ATCC 25923; [3]) | MIC MRSA [1, 3] | MIC E. coli (E. coli ATCC 25922; [3]) | MIC P. aeruginosa (P. aeruginosa ATCC 27853; [3]) | MBC S. aureus (S. aureus) [µg/mL] | MBC MRSA (MRSA) [µg/mL] | MBC E. coli (E. coli) [µg/mL] | MBC P. aeruginosa (P. aeruginosa) [µg/mL] | MIC S. aureus (S. aureus ATCC 25923; Table 1, 37° C., 24 h) | MIC MRSA ([1]; Table 1, 37° C., 24 h) [µg/mL] | MIC E. coli (E. coli ATCC 25922; Table 1, 37° C., 24 h) [µg/mL] | MIC P. aeruginosa (P. aeruginosa ATCC 27853; Table 1, 37° C., 24 h) [µg/mL] | logP [2] | MIC S. epidermidis (S. epidermidis) | MIC S. typhimurium (S. typhimurium) | MIC E. faecalis (E. faecalis) | MIC VRE (VRE) | MIC A. baumanii (A. baumanii) |
| --- | --- | --- | --- | --- | --- | --- | --- | --- | --- | --- | --- | --- | --- | --- | --- | --- | --- | --- |
| [{Ru(terpy)(Cl)}2(μ-bb14)](PF6)2 [Rubb14-Cl] | 1 | 1 | 2 | 32 | 1 | 2 | 2 | 64 | – | – | – | – | – | – | – | – | – | – |
| Cc1ccnc(-c2cc(CCCCCCCc3cc[n+]4c(c3)-c3cc(C)cc[n+]3[Ru-4]435([n+]4cccc6ccc7ccc[n+]3c7c64)[n+]3cccc4ccc6ccc[n+]5c6c43)ccn2)c1 [Rubb7mono, Δ-[Ru(phen)2(bb7)]^2+] | – | – | – | – | – | – | – | – | 4 µg/mL | 16 | 16 | 32 | −0.7 | – | – | – | – | – |
| Δ*Δ*-[{Ru*(phen)2}(μ-bb7) {Ru(phen)}(μ-bb7){Ru(phen)}(μ-bb7)-{Ru*(phen)2}]Cl8 [Rubb7tetranuclear] | – | – | – | – | – | – | – | – | 8 µg/mL | 8 | 32 | 8 | −1.9 | – | – | – | – | – |
| gentamicin [reference compound] | – | – | – | – | – | – | – | – | ≦0.0625 μg.ml^−1 | 16 | 0.5 | 0.125 | – | <0.125 | 2 | 32 | 16 | 16 |
| [Ru(phen)2(μ-bb16)Ru(terpy)Cl](PF6)3 [Ru(μ-bb16)Ru—Cl] | 2 | 2 | 4 | 64 | 2 | 2 | 4 | 64 | – | – | – | – | – | – | – | – | – | – |
| Δ-[Ru(phen)2(bb16)]Cl2 [Rubb16mono] | – | – | – | – | – | – | – | – | 16 µg/mL | 16 | 64 | 64 | +2.1 | – | – | – | – | – |
| ΔΔ-[{Ru(phen)2}2(μ-2,2′-bipyrimidine)]Cl4 [Rubpm, reference compound] | – | – | – | – | – | – | – | – | >128 µg/mL | >128 | >128 | >128 | – | >128 | >128 | >128 | >128 | >128 |
| Cc1cc[n+]2c(c1)-c1cc(CCCCCCCc3cc[n+]4c(c3)-c3cc(C)cc[n+]3[Ru-4]435([n+]4cccc6ccc7ccc[n+]3c7c64)[n+]3cccc4ccc6ccc[n+]5c6c43)cc[n+]1[Ru-4]213([Cl])[n+]2ccccc2-c2cccc([n+]21)-c1cccc[n+]13 [Ru(μ-bb7)Ru—Cl, [Ru(phen)2(μ-bb7)Ru(terpy)Cl]] | 8 | 8 | 1 | 16 | 16 | 32 | 1 | 32 | – | – | – | – | – | – | – | – | – | – |
| Cc1cc[n+]2c(c1)-c1cc(CCCCCCCc3cc[n+]4c(c3)-c3cc(C)cc[n+]3[Ru-4]435([n+]4cccc6ccc7ccc[n+]3c7c64)[n+]3cccc4ccc6ccc[n+]5c6c43)cc[n+]1[Ru-4]213([n+]2cccc4ccc5ccc[n+]1c5c42)[n+]1cccc2ccc4ccc[n+]3c4c21.F[P-](F)(F)(F)(F)F.F[P-](F)(F)(F)(F)F.F[P-](F)(F)(F)(F)F.F[P-](F)(F)(F)(F)F [Rubb7, [{Ru(phen)2}2(μ-bb7)](PF6)4] | 16 | 16 | 16 | 64 | 32 | 32 | 16 | 128 | – | – | – | – | −3.4 | – | – | – | – | – |
| Cc1cc[n+]2c(c1)-c1cc(CCCCCCCCCCCCc3cc[n+]4c(c3)-c3cc(C)cc[n+]3[Ru-4]435([Cl])[n+]4ccccc4-c4cccc([n+]43)-c3cccc[n+]35)cc[n+]1[Ru-4]213([Cl])[n+]2ccccc2-c2cccc([n+]21)-c1cccc[n+]13.F[P-](F)(F)(F)(F)F.F[P-](F)(F)(F)(F)F [Rubb12-Cl, [{Ru(terpy)(Cl)}2(μ-bb12)](PF6)2] | 1 | 1 | 2 | 8 | 1 | 1 | 2 | 16 | – | – | – | – | – | – | – | – | – | – |
| [{Ru(terpy)Cl}2(μ-bb7)] [Rubb7-Cl] | 8 | 8 | 8 | 32 | 8 | 16 | 8 | 64 | – | – | – | – | – | – | – | – | – | – |
| Δ*Δ*-[{Ru*(phen)2}(μ-bb7){Ru(phen)}(μ-bb7){Ru*(phen)2}]Cl6 [Rubb7trinuclear] | – | – | – | – | – | – | – | – | 4 µg/mL | 4 | 16 | 2 | −1.2 | – | – | – | – | – |
| [Ru(phen)2(μ-bb12)Ru(terpy)Cl](PF6)3 [Ru(μ-bb12)Ru—Cl] | 1 | 1 | 1 | 16 | 1 | 2 | 1 | 32 | – | – | – | – | – | – | – | – | – | – |
